The text below walks through data of patent US11479546B2, “Antimalarial hexahydropyrimidine analogues” (UCB Biopharma SRL, priority 2018, dated 2022).

One test concerns Plasmodium falciparum 3D7. The experiment in a line: P. falciparum 3D7 asexual blood stage assay, Assay Procedure Version 2 (SYBR green readout). To be noted: Plasmodium falciparum, 3D7, Erythrocyte, 72 h, Version 2 of the assay procedure (asterisk *); 72 h incubation in infected erythrocytes; 50,000 nM to 15 nM. In kind it is cell-based. Put shortly: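 P. falciparum 3D7 in A+ erythrocytes (5% haematocrit, 0.5% parasitaemia) exposed 72 h at 37 °C (1% O2, 3% CO2) to 20-point 1.5-fold titrations, final 50,000–15 nM in 0.5% DMSO. SYBR green in lysis buffer overnight, fluorescence 485/528 nm; % inhibition vs mefloquine and DMSO controls, EC50 from biphasic two-site fit.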
The molecule `C[C@@]1(c2cccc(Nc3ccc(OC(F)(F)F)nc3)c2Cl)CC(=O)N([C@H]2C[C@@](C)(O)C2)C(=N)N1` [Example 130, (6S)-6-(2-Chloro-3-{[6-(trifluoromethoxy)pyridin-3-yl]-amino}phenyl)-3-(3-hydroxy-3-methylcyclobutyl)-2-imino-6-methylhexahydropyrimidin-4-one] returned an IC50 of 744 nM.

With `CC(C)(C)c1ncc(Nc2cccc([C@]3(C)CC(=O)N(C4CCOCC4)C(=N)N3)c2Cl)cn1` [Example 62, (6S)-6-{3-[(2-tert-Butyl-pyrimidin-5-yl)amino]-2-chloro-phenyl}-2-imino-6-methyl-3-(tetrahydropyran-4-yl)-hexahydropyrimidin-4-one], inhibition was half-maximal at 226 nM (IC50). As to `CC1(C)CC(N2C(=N)N[C@](C)(c3cccc(Nc4cnc(C(C)(C)C)cn4)c3Cl)CC2=O)CCO1` (single isomer, unassigned) [Example 149, (6S)-6-{3-[(5-tert-Butylpyrazin-2-yl)amino]-2-chlorophenyl}-3-[(4S*)-2,2-dimethyltetrahydro-pyran-4-yl]-2-imino-6-methyl-hexahydropyrimidin-4-one], the IC50 turned out to be 1380 nM. This IC50 is about 6.1-fold higher than that of the molecule before. Turning to `COc1cc(Nc2cccc([C@]3(C)CC(=O)N(C4CCOCC4)C(=N)N3)c2Cl)ccn1` [Example 87, (6S)-6-{2-Chloro-3-[(2-methoxypyridin-4-yl)amino]-phenyl}-2-imino-6-methyl-3-(tetrahydropyran-4-yl)-hexahydropyrimidin-4-one], the concentration for half-maximal inhibition (IC50) turned out to be 666 nM.

Take `C[C@@]1(c2cccc(Nc3ccc(F)cn3)c2Cl)CC(=O)N([C@H]2C[C@@](C)(O)C2)C(=N)N1` [Example 126, (6S)-6-{2-Chloro-3-[(5-fluoro-pyridin-2-yl)amino]phenyl}-3-(3-hydroxy-3-methylcyclo-butyl)-2-imino-6-methyl-hexahydropyrimidin-4-one]: inhibition was half-maximal at 1750 nM (IC50). This IC50 is about 2.6-fold higher than that of the molecule before.

Consider `COc1ncccc1Nc1cccc([C@]2(C)CC(=O)N(C3CCOCC3)C(=N)N2)c1Cl` [Example 50, (6S)-6-{2-Chloro-3-[(2-methoxypyridin-3-yl)amino]-phenyl}-2-imino-6-methyl-3-(tetrahydropyran-4-yl)-hexahydropyrimidin-4-one], for which the concentration for half-maximal inhibition (IC50) stood at 373 nM. This IC50 lies about 4.7-fold lower than the previous one. The molecule `CC(C)(C)c1ccc(Nc2cccc([C@]3(C)CC(=O)N(C4CCOCC4)C(=N)N3)c2Cl)cn1` [Example 105, (6S)-6-{3-[(6-tert-Butylpyridin-3-yl)amino]-2-chlorophenyl}-2-imino-6-methyl-3-(tetrahydro-pyran-4-yl)hexahydropyrimidin-4-one] yielded an IC50 of 318 nM. Same read-out and setting: in the case of `C[C@@]1(c2cccc(Nc3cccc4c3OC(F)(F)O4)c2Cl)CC(=O)N(C2CCOCC2)C(=N)N1` [Example 68, (6S)-6-{2-Chloro-3-[(2,2-difluoro-1,3-benzodioxol-4-yl)amino]phenyl}-2-imino-6-methyl-3-tetrahydropyran-4-yl-hexahydropyrimidin-4-one] it was 524 nM.

Consider `Cc1cnc(Nc2cccc([C@]3(C)CC(=O)N([C@H]4C[C@@](C)(O)C4)C(=N)N3)c2Cl)cn1` [Example 129, (6S)-6-{2-Chloro-3-[(5-methyl-pyrazin-2-yl)amino]phenyl}-3-(3-hydroxy-3-methylcyclo-butyl)-2-imino-6-methyl-hexahydropyrimidin-4-one], for which the midpoint of inhibition, the IC50, lay at 1330 nM. Still for that read-out and setting: in the case of `Cc1nn(-c2ccccc2)c(C)c1Nc1cccc([C@]2(C)CC(=O)N(C3CCOCC3)C(=N)N2)c1Cl` [Example 186, (6S)-6-{2-Chloro-3-[(3,5-dimethyl-1-phenylpyrazol-4-yl)-amino]phenyl}-2-imino-6-methyl-3-(tetrahydropyran-4-yl)hexahydropyrimidin-4-one] it was 456 nM.

Turning to `CC(C)(C)c1ccc(Nc2cccc([C@]3(C)CC(=O)N(C4CCOCC4)C(=N)N3)c2Cl)cc1` [Example 67, (6S)-6-[3-(4-tert-Butylanilino)-2-chlorophenyl]-2-imino-6-methyl-3-(tetrahydropyran-4-yl)hexahydropyrimidin-4-one], the IC50 is 2580 nM. In turn, `Cn1ncc2cc(Nc3cccc([C@]4(C)CC(=O)N(C5CCOCC5)C(=N)N4)c3Cl)cnc21` [Example 115, (6S)-6-{2-Chloro-3-[(1-methyl-pyrazolo[3,4-b]pyridin-5-yl)-amino]phenyl}-2-imino-6-methyl-3-(tetrahydropyran-4-yl)hexahydropyrimidin-4-one] registered a half-inhibitory concentration (IC50) of 668 nM. Turning to `C[C@@]1(c2cccc(Nc3cnc4ccccn34)c2Cl)CC(=O)N(C2CCOCC2)C(=N)N1` [Example 185, (6S)-6-[2-Chloro-3-(imidazo-[1,2-a]pyridin-3-ylamino)-phenyl]-2-imino-6-methyl-3-(tetrahydropyran-4-yl)-hexahydropyrimidin-4-one], the half-inhibitory concentration (IC50) is 565 nM.

Molecule `C[C@H]1C[C@H](N2C(=N)N[C@](C)(c3cccc(Nc4ccc(OC(F)F)nc4)c3Cl)CC2=O)CCO1` (single isomer, unassigned; peak 2) [Example 192, (6S)-6-(2-Chloro-3-{[6-(difluoromethoxy)pyridin-3-yl]-amino}phenyl)-2-imino-6-methyl-3-[(2S*,4R*)-2-methyl-tetrahydropyran-4-yl]-hexahydropyrimidin-4-one (Peak 2)] registered an IC50 of 3700 nM. Compared with the last molecule, the IC50 is about 6.5-fold higher. On the same count and under the same terms, in the case of `C[C@@]1(c2cccc(Nc3ccc(F)cc3C#N)c2Cl)CC(=O)N([C@H]2C[C@@](C)(O)C2)C(=N)N1` [Example 127, 2-{2-Chloro-3-[(4S)-1-(3-hydroxy-3-methylcyclobutyl)-2-imino-4-methyl-6-oxo-hexahydropyrimidin-4-yl]-anilino}-5-fluorobenzonitrile] it was 184 nM; in that of `C[C@@H]1C[C@H](N2C(=N)N[C@](C)(c3cccc(Nc4ccc(C5CC5)nc4)c3Cl)CC2=O)CCO1` (relative stereo) [Example 198, (6S)-6-{2-Chloro-3-[(6-cyclo-propylpyridin-3-yl)amino]-phenyl}-2-imino-6-methyl-3-[(2R*,4R*)-2-methyltetrahydro-pyran-4-yl]hexahydropyrimidin-4-one], 22 nM; in that of `C[C@@]1(c2cccc(Nc3ccn4nccc4c3)c2Cl)CC(=O)N([C@H]2C[C@@](C)(O)C2)C(=N)N1` [Example 132, (6S)-6-[2-Chloro-3-(pyrazolo-[1,5-a]pyridin-5-ylamino)-phenyl]-3-(3-hydroxy-3-methyl-cyclobutyl)-2-imino-6-methyl-hexahydropyrimidin-4-one], 623 nM. With `C[C@@]1(c2cccc(Nc3ncc4ccccn34)c2Cl)CC(=O)N(C2CCOCC2)C(=N)N1` [Example 187, (6S)-6-[2-Chloro-3-(imidazo-[1,5-a]pyridin-3-ylamino)-phenyl]-2-imino-6-methyl-3-(tetrahydropyran-4-yl)-hexahydropyrimidin-4-one], half-maximal inhibition (IC50) was put at 385 nM. The same measure, in the same setting: in the case of `C[C@@]1(c2cccc(Nc3ncccc3C#N)c2Cl)CC(=O)N(C2CCOCC2)C(=N)N1` [Example 184, 2-{2-Chloro-3-[(4S)-2-imino-4-methyl-6-oxo-1-(tetrahydro-pyran-4-yl)hexahydropyrimidin-4-yl]anilino}pyridine-3-carbo-nitrile] it was 217 nM. The molecule `C[C@@]1(c2cccc(Nc3ccc(OCC(F)(F)F)nc3)c2Cl)CC(=O)N(C2CCOCC2)C(=N)N1` [Example 112, (6S)-6-(2-Chloro-3-{[6-(2,2,2-trifluoroethoxy)pyridin-3-yl]-amino}phenyl)-2-imino-6-methyl-3-(tetrahydropyran-4-yl)hexahydropyrimidin-4-one] had an IC50 of 642 nM.

On to `C[C@@]1(c2cccc(Nc3ccc(F)cc3OC(F)F)c2Cl)CC(=O)N(C2CCOCC2)C(=N)N1` [Example 92, (6S)-6-{2-Chloro-3-[2-(difluoro-methoxy)-4-fluoro-anilino]-phenyl}-2-imino-6-methyl-3-(tetrahydropyran-4-yl)-hexahydropyrimidin-4-one], for which inhibition was half-maximal at 461 nM (IC50). The IC50 values of the last two molecules are within 1.5-fold of each other.

For the molecule `Cn1cnc2cc(Nc3cccc([C@]4(C)CC(=O)N(C5CCOCC5)C(=N)N4)c3Cl)cnc21` [Example 116, (6S)-6-{2-Chloro-3-[(3-methyl-imidazo[4,5-b]pyridin-6-yl)-amino]phenyl}-2-imino-6-methyl-3-(tetrahydropyran-4-yl)hexahydropyrimidin-4-one], the half-maximal inhibitory concentration (IC50) came out at 556 nM. On the same count and under the same terms, in the case of `C[C@@]1(c2cccc(Nc3ccccc3OC(F)F)c2Cl)CC(=O)N(C2CCOCC2)C(=N)N1` [Example 66, (6S)-6-{2-Chloro-3-[2-(difluoro-methoxy)anilino]phenyl}-2-imino-6-methyl-3-(tetrahydro-pyran-4-yl)hexahydropyrimidin-4-one] it was 217 nM; in that of `C[C@@]1(c2cccc(Nc3ccc(C4CC4)nc3)c2Cl)CC(=O)N([C@H]2C[C@](O)(C(F)(F)F)C2)C(=N)N1` [Example 154, (6S)-6-{2-Chloro-3-[(6-cyclo-propylpyridin-3-yl)amino]-phenyl}-3-[3-hydroxy-3-(trifluoromethyl)cyclobutyl]-2-imino-6-methylhexahydro-pyrimidin-4-one (cis isomer)], 884 nM; in that of `C[C@@H]1C[C@H](N2C(=N)N[C@](C)(c3cccc(Nc4ccc(Cl)cc4)c3Cl)CC2=O)CCO1` (relative stereo) [Example 155, (6S)-6-[2-Chloro-3-(4-chloro-anilino)phenyl]-2-imino-6-methyl-3-[(2R*,4R*)-2-methyl-tetrahydropyran-4-yl]-hexahydropyrimidin-4-one], 71 nM.

Still in this test, the particulars now being: Version 2 of the assay procedure (asterisk *); 72 h incubation in infected erythrocytes; 50,000 nM to 15 nM.
`CC1(C)CC(N2C(=N)N[C@](C)(c3cccc(Nc4ccc(C5CC5)nc4)c3Cl)CC2=O)CCO1` (single isomer, unassigned) [Example 158, (6S)-6-{2-Chloro-3-[(6-cyclo-propylpyridin-3-yl)amino]-phenyl}-3-[(4S*)-2,2-dimethyl-tetrahydropyran-4-yl]-2-imino-6-methylhexahydropyrimidin-4-one] had an IC50 of 1730 nM.
